From patent publication US20100093714A1, “AMIDES OF THIENO[2,3-d]PYRIMIDINE AND THEIR USE AS ADENOSINE A2a RECEPTOR ANTAGONISTS” (priority 2008, published 2010)
Counter-ions that a name gives are not always drawn. Blank lines part the entries; values can stand above or below the compound they belong to.

What was measured:
[1] = target: T1, human adenosine A2a receptor (Homo sapiens, UniProt P29274); test: Adenosine A2a Receptor Functional Assay (A2AGAL2); assay type: cell-based; conditions: CHO-K1 cells, cAMP inducible beta-galactosidase reporter, 15 nM NECA agonist challenge
T1 construct: expressed in transfected cells; host or cells: CHO-K1
Experimental: (§1) To initiate the functional assay, cryopreserved CHO-K1 cells overexpressing the human adenosine A2a receptor and containing a cAMP inducible beta-galactosidase reporter gene were thawed, centrifuged, DMSO containing media removed, and then seeded with fresh culture media into clear 384-well tissue culture treated plates (BD #353961) at a concentration of 10K cells/well. Prior to assay, these plates were cultured for two days at 37° C., 5% CO2, 90% Rh. On the day of the functional assay, culture media was removed and replaced with 45 uL assay medium (Hams/F-12 Modified (Mediatech #10-080CV) supplemented w/0.1% BSA). Test compounds were diluted and 11 point curves created at a 1000× concentration in 100% DMSO. Immediately after addition of assay media to the cell plates, 50 nL of the appropriate test compound antagonist or agonist control curves were added to cell plates using a Cartesian Hummingbird. Compound curves were allowed to incubate at room temperature on cell plates for approximately 15 minutes before addition of a 15 nM NECA (Sigma E2387) agonist challenge (5 uL volume). A control curve of NECA, a DMSO/Media control, and a single dose of Forskolin (Sigma F3917) were also included on each plate. After additions, cell plates were allowed to incubate at 37° C., 5% CO2, 90% Rh for 5.5-6 hours. After incubation, media was removed, and cell plates were washed 1×50 uL with DPBS w/o Ca & Mg (Mediatech 21-031-CV). Into dry wells, 20 uL of 1× Reporter Lysis Buffer (Promega E3971 (diluted in dH2O from 5× stock)) was added to each well and plates frozen at −20° C. overnight. For β-galactosidase enzyme calorimetric assay, plates were thawed out at room temperature and 20 μL 2× assay buffer (Promega) was added to each well. Color was allowed to develop at 37° C., 5% CO2, 90% Rh for 1-1.5 h or until reasonable signal appeared. The calorimetric reaction was stopped with the addition of 60 μL/well 1M sodium carbonate. Plates were counted at 405 nm on a SpectraMax Microplate Reader (Molecular Devices). Data was analyzed in Microsoft Excel and IC/EC50 curves were fit using a standardized macro.

[2] = target: T2, human adenosine A1 receptor (Homo sapiens, UniProt P30542); test: Adenosine A1 Receptor Functional Assay (A1GAL2); assay type: cell-based; conditions: CHO-K1 cells, cAMP inducible beta-galactosidase reporter, 4nM r-PIA/1 uM Forskolin agonist challenge
T2 construct: expressed in transfected cells; host or cells: CHO-K1
T2 sequence (P30542 1-326): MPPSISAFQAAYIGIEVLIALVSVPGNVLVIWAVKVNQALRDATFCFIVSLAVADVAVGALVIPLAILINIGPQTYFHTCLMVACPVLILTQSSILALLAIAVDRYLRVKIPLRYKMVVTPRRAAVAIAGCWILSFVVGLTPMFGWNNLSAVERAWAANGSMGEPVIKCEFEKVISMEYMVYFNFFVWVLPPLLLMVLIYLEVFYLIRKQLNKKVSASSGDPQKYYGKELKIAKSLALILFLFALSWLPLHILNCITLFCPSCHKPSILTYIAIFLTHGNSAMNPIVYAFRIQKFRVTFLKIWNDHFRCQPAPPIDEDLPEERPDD
Experimental: as §1, with “A1” for “A2a”, “4nM r-PIA” for “15 nM NECA”, “P4532)/1 uM Forskolin (Sigma F3917)” for “E2387)”, “r-PIA in 1 uM Forskolin,” for “NECA,”, “Forskolin” for “Forskolin (Sigma F3917)”

T1 sequence (P29274 whole entry): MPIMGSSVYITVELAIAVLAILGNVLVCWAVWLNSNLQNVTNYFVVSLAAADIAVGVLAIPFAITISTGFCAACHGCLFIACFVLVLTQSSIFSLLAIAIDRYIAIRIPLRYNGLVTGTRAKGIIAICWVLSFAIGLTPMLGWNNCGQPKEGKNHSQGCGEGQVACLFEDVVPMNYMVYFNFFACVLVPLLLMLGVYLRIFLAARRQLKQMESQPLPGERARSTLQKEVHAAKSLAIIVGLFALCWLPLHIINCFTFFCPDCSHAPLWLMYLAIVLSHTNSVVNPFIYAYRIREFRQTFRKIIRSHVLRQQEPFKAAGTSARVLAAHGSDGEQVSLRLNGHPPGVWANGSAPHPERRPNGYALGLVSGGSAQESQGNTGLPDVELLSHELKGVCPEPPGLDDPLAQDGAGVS

SMILES: Nc1nc(-c2nccs2)nc2sc(C(=O)N3CCOCC3)cc12 [Example 4, (4-Amino-2-thiazol-2-yl-thieno[2,3-d]pyrimidin-6-yl)-morpholin-4-yl-methanone]
Ki [1]: 80.9 nM
Ki [2]: 1430 nM

SMILES: Cc1csc(-c2nc(N)c3cc(C(=O)N4CCN(Cc5ccccn5)CC4)sc3n2)n1 [Example 28, [4-Amino-2-(4-methyl-thiazol-2-yl)-thieno[2,3-d]pyrimidin-6-yl]-(4-pyridin-2-ylmethyl-piperazin-1-yl)-methanone]
Ki [1]: 160 nM
Ki [2]: > 1040 nM

SMILES: CC(C)(C)N1CCN(C(=O)c2cc3c(N)nc(-c4cccc(C#N)c4)nc3s2)CC1 [Example 9, 3-[4-Amino-6-(4-tert-butyl-piperazine-1-carbonyl)-thieno[2,3-d]pyrimidin-2-yl]-benzonitrile]
Ki [1]: 94.2 nM
Ki [2]: 603 nM

SMILES: Cc1csc(-c2nc(N)c3cc(C(=O)NCCN4CCS(=O)(=O)CC4)sc3n2)n1 [Example 7, 4-Amino-2-(4-methyl-thiazol-2-yl)-thieno[2,3-d]pyrimidine-6-carboxylic acid[2-(1,1-dioxo-1-thiomorpholin-4-yl)-ethyl]-amide]
Ki [1]: 193 nM
Ki [2]: ~927 nM

SMILES: Cc1csc(-c2nc(N)c3cc(C(=O)N4CCN(c5ccncc5)CC4)sc3n2)n1 [Example 8, [4-Amino-2-(4-methyl-thiazol-2-yl)-thieno[2,3-d]pyrimidin-6-yl]-(4-pyridin-4-yl-piperazin-1-yl)-methanone]
Ki [1]: 222 nM
Ki [2]: > 1070 nM

SMILES: Cc1csc(-c2nc(N)c3cc(C(=O)N4CCN(c5nccs5)CC4)sc3n2)n1 [Example 33, [4-Amino-2-(4-methyl-thiazol-2-yl)-thieno[2,3-d]pyrimidin-6-yl]-(4-thiazol-2-yl-piperazin-1-yl)-methanone]
Ki [1]: 81.9 nM
Ki [2]: 978 nM

SMILES: N#Cc1cccc(-c2nc(N)c3cc(C(=O)NCCN4CCOCC4)sc3n2)c1 [Example 10, 4-Amino-2-(3-cyano-phenyl)-thieno[2,3-d]pyrimidine-6-carboxylic acid(2-morpholin-4-yl-ethyl)-amide]
Ki [1]: 34.7 nM
Ki [2]: 52.6 nM

SMILES: N#Cc1cccc(-c2nc(N)c3cc(C(=O)NCc4cccnc4)sc3n2)c1 [Example 19, 4-Amino-2-(3-cyano-phenyl)-thieno[2,3-d]pyrimidine-6-carboxylic acid(pyridin-3-ylmethyl)-amide]
Ki [1]: 14.2 nM
Ki [2]: 21.9 nM

SMILES: CC(C)c1ccc(-c2nc(N)c3cc(C(=O)N4CCOCC4)sc3n2)o1 [Example 30, [4-Amino-2-(5-isopropyl-furan-2-yl)-thieno[2,3-d]pyrimidin-6-yl]-morpholin-4-yl-methanone]
Ki [1]: 236 nM
Ki [2]: 522 nM

SMILES: Nc1nc(-c2ccc(C3CC3)o2)nc2sc(C(=O)N3CCOCC3)cc12 [Example 29, [4-Amino-2-(5-cyclopropyl-furan-2-yl)-thieno[2,3-d]pyrimidin-6-yl]-morpholin-4-yl-methanone]
Ki [1]: 236 nM
Ki [2]: > 1070 nM

SMILES: Nc1nc(-c2ccc(C3CC3)o2)nc2sc(C(=O)NCc3cccnc3)cc12 [Example 14, 4-Amino-2-(5-cyclopropyl-furan-2-yl)-thieno[2,3-d]pyrimidine-6-carboxylic acid(pyridin-3-ylmethyl)-amide]
Ki [1]: 1550 nM
Ki [2]: > 610 nM

SMILES: Cc1csc(-c2nc(N)c3cc(C(=O)N4CCN(C(C)(C)C)CC4)sc3n2)n1 [Example 23, [4-Amino-2-(4-methyl-thiazol-2-yl)-thieno[2,3-d]pyrimidin-6-yl]-(4-tert-butyl-piperazin-1-yl)-methanone]
Ki [1]: 367 nM
Ki [2]: > 1310 nM

SMILES: Cc1csc(-c2nc(N)c3cc(C(=O)NC4CCOCC4)sc3n2)n1 [Example 12, 4-Amino-2-(4-methyl-thiazol-2-yl)-thieno[2,3-d]pyrimidine-6-carboxylic acid(tetrahydro-pyran-4-yl)-amide]
Ki [1]: 21.9 nM
Ki [2]: 443 nM

SMILES: Cc1csc(-c2nc(N)c3cc(C(=O)NCCc4cccnc4)sc3n2)n1 [Example 11, 4-Amino-2-(4-methyl-thiazol-2-yl)-thieno[2,3-d]pyrimidine-6-carboxylic acid(2-pyridin-3-yl-ethyl)-amide]
Ki [1]: 17.9 nM
Ki [2]: 530 nM

More lines, in order of falling Ki [1], values ahead:

Ki [1]: 1240 nM
Ki [2]: > 1040 nM
SMILES: CC(C)(C)N1CCN(C(=O)c2cc3c(N)nc(-c4ccc(C5CC5)o4)nc3s2)CC1 [Example 32, [4-Amino-2-(5-cyclopropyl-furan-2-yl)-thieno[2,3-d]pyrimidin-6-yl]-(4-tert-butyl-piperazin-1-yl)-methanone]

Ki [1]: 528 nM
Ki [2]: > 923 nM
SMILES: Cc1cc(-c2nc(N)c3cc(C(=O)N4CCOCC4)sc3n2)no1 [Example 17, [4-Amino-2-(5-methyl-isoxazol-3-yl)-thieno[2,3-d]pyrimidin-6-yl]-morpholin-4-yl-methanone]

Ki [1]: 361 nM
Ki [2]: > 10000 nM
SMILES: Nc1nc(-c2ncco2)nc2sc(C(=O)N3CCOCC3)cc12 [Example 6, (4-Amino-2-oxazol-2-yl-thieno[2,3-d]pyrimidin-6-yl)-morpholin-4-yl-methanone]

Ki [1]: 287 nM
Ki [2]: > 1310 nM
SMILES: Nc1nc(-c2ncco2)nc2sc(C(=O)NCCN3CCOCC3)cc12 [Example 25, 4-Amino-2-oxazol-2-yl-thieno[2,3-d]pyrimidine-6-carboxylic acid(2-morpholin-4-yl-ethyl)-amide]

Ki [1]: 195 nM
Ki [2]: > 948 nM
SMILES: CCN1CCN(C(=O)c2cc3c(N)nc(-c4nc(C)cs4)nc3s2)CC1 [Example 18, [4-Amino-2-(4-methyl-thiazol-2-yl)-thieno[2,3-d]pyrimidin-6-yl]-(4-ethyl-piperazin-1-yl)-methanone hydrochloride]

Ki [1]: 184 nM
Ki [2]: 598 nM
SMILES: C[C@@H]1CN(C(=O)c2cc3c(N)nc(-c4cccc(C#N)c4)nc3s2)C[C@H](C)O1 [Example 1, 3-[4-Amino-6-(2,6-dimethyl-morpholine-4-carbonyl)-thieno[2,3-d]pyrimidin-2-yl]-benzonitrile]

Ki [1]: 109 nM
Ki [2]: 508 nM
SMILES: Cc1csc(-c2nc(N)c3cc(C(=O)NCc4ccc(Cl)nc4)sc3n2)n1 [Example 20, 4-Amino-2-(4-methyl-thiazol-2-yl)-thieno[2,3-d]pyrimidine-6-carboxylic acid(6-chloro-pyridin-3-yl-methyl)-amide hydrochloride]

Ki [1]: 99.2 nM
Ki [2]: > 1000 nM
SMILES: Nc1nc(-c2ncco2)nc2sc(C(=O)NC3CCOCC3)cc12 [Example 13, 4-Amino-2-oxazol-2-yl-thieno[2,3-d]pyrimidine-6-carboxylic acid(tetrahydro-pyran-4-yl)-amide]

Ki [1]: 92.9 nM
Ki [2]: > 1310 nM
SMILES: Nc1nc(-c2nc(C(F)(F)F)cs2)nc2sc(C(=O)N3CCOCC3)cc12 [Example 26, [4-Amino-2-(4-trifluoromethyl-thiazol-2-yl)-thieno[2,3-d]pyrimidin-6-yl]-morpholin-4-yl-methanone]
